Test system: subjects with mild bronchial asthma
Assay: Lung function (FEV-1 and PEF by spirometry) after a single inhaled dose in mild asthmatics
Assay type: in vivo, human
Settings: single 5 ml inhaled dose
Procedure: Three concentrations of sodium pyruvate were studied; 0.5 mM, 1.5 mM and 5.0 mM. Sixty (60) subjects completed the study protocol. The 60 subjects included fifteen (15) non-asthmatic control individuals and forty-five (45) individuals with mild bronchial asthma. […] The total subject population was composed of 40 females and 20 males with a mean population age of 36.6 years (range of 18-66 years).
Individuals with mild bronchial asthma were divided into three groups of 15 subjects; each group received one of the three concentrations of sodium pyruvate. Each subject each inhaled a single dose of physiological saline (Visit 1) and on a return visit inhaled a single dose of 5.0 ml of one of the concentrations of sodium pyruvate (Visit 2).
Lung function assessments and vital signs were monitored at baseline (pre-dose) and at 15 minutes, 30 minutes 1 hour, 2 hours and 4 hours post administration. On a return visit (Visit 2), each subject inhaled a single 5 ml dose of sodium pyruvate in physiological saline. The physiological lung functions assessed included Forced Expiratory Volume in One Second (FEV-1) and Peak Expiratory Flow (PEF).
An FEV-1 and PEF values are obtained during routine spirometry testing. FEV-1 is the volume of air expelled in the first second of a forced expiration starting from full inspiration. It is the most widely accepted indicator of obstructive lung disease severity and used because it is objective and reproducible. PEF is the greatest flow rate that can be sustained for 10 milliseconds on forced expiration from full inflation of the lungs. Changes of greater than 10% FEV-1 and greater than 25% in PEF are generally accepted as clinically relevant ant were used as standards in data evaluation for this study.

CC(=O)C(=O)[O-].[Na+] [sodium pyruvate]
percent change in FEV-1 (0.5 mM sodium pyruvate, 15 minutes (p=0.012), 30 minutes (p=0.039), 1 hour (p=0.054), 2 hours (p=0.0001), compared to inhalation of physiological saline): greater than 10%
percent change in PEF (0.5 mM sodium pyruvate, 15 minutes (p=0.014), 30 minutes (p=0.027), 1 hour (p=0.012), 2 hours (p=0.024), 4 hours (p=0.018), compared to inhalation of physiological saline): greater than 25%
change in FEV-1 (1.5 mM sodium pyruvate): No significant change
change in PEF (1.5 mM sodium pyruvate): No significant change
change in FEV-1 (5.0 mM sodium pyruvate): No significant change
change in PEF (5.0 mM sodium pyruvate): No significant change

From patent US6623723B2, “Method for treating bronchial constriction and bronchospasm” (Cellular Sciences Inc., priority 2001, dated 2003)
